Experimental data from patent publication US20060069132A1, “Azolecarboxamide herbicides” (priority 2004, published 2006).
Like-named read-outs stand apart in the source and are kept apart here.

Legend:
blackgrass = assay: Test B postemergence herbicide test; format: in vivo, Alopecurus myosuroides; conditions: Alopecurus myosuroides, post-emergence, 336 h, postemergence, visual rating, scale 0 (no effect) to 100 (complete control), read-out: Blackgrass plant response rating
Method in brief: (§1)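 Paddy species grown to the 2-leaf stage under flooding; blackgrass sprayed postemergence at 2–18 cm (1- to 4-leaf stage). Plants kept in a greenhouse for 13 to 15 days, then visually rated against controls on 0 (no effect) to 100 (complete control).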

velvetleaf = assay: Test B pre-/postemergence herbicide test; format: in vivo, Abutilon theophrasti; conditions: Abutilon theophrasti, 336 h; for pest or weed control at 125 g/ha: 125 g ai/ha; for pest or weed control at 500 g/ha: 500 g ai/ha
Method in brief: (§2)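 Herbicidal effect was judged by eye on a 0–100 scale after plants stood 13 to 15 days in the greenhouse following pre- or postemergence treatment with surfactant-containing formulations.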

large crabgrass = assay: Test B pre-/postemergence herbicide test; format: in vivo, Digitaria sanguinalis; conditions: Digitaria sanguinalis; for pest or weed control at 125 g/ha: 125 g ai/ha; for pest or weed control at 500 g/ha: 500 g ai/ha
Method in brief: as §2

ducksalad = assay: Test B flooded paddy test; format: in vivo, Heteranthera limosa; conditions: Heteranthera limosa, 336 h, 1000 g ai/ha, visual rating, scale 0 to 100 (0 no effect, 100 complete control), 13 to 15 days, read-out: Ducksalad plant response rating
Method in brief: as §1

[1] = test system: small flower umbrella sedge; assay: Test B flooded paddy test; format: in vivo, Cyperus difformis; conditions: Cyperus difformis, 336 h, 1000 g ai/ha, visual rating, scale 0 to 100 (0 no effect, 100 complete control), 13 to 15 days, read-out: Sedge, Umbrella plant response rating
Method in brief: as §1

barnyardgrass [2] = assay: Test B flooded paddy test; format: in vivo, Echinochloa crus-galli; conditions: Echinochloa crus-galli, 336 h, 1000 g ai/ha, visual rating, scale 0 to 100 (0 no effect, 100 complete control), 13 to 15 days, read-out: Barnyardgrass plant response rating
Method in brief: as §1

pigweed = assay: Test B pre-/postemergence herbicide test; format: in vivo, Amaranthus retroflexus; conditions: Amaranthus retroflexus, 336 h; for pest or weed control at 125 g/ha: 125 g ai/ha; for pest or weed control at 500 g/ha: 500 g ai/ha
Method in brief: as §2

wheat = assay: Test B postemergence herbicide test; format: in vivo, Triticum aestivum; conditions: Triticum aestivum, post-emergence, 336 h, postemergence, visual rating, scale 0 (no effect) to 100 (complete control), read-out: Wheat plant response rating
Method in brief: (§3)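 Greenhouse test; postemergence application to plants at 1–4 leaves (2–18 cm); paddy species at 2 leaves; evaluated visually vs controls at 13–15 days; scale 0–100 (100 = complete control).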

corn = assay: Test B pre-/postemergence herbicide test; format: in vivo, Zea mays; conditions: Zea mays; for plant injury at 125 g/ha: 125 g ai/ha
Method in brief: as §2

rice = assay: Test B flooded paddy test; format: in vivo, Oryza sativa; conditions: Oryza sativa, 336 h, 1000 g ai/ha, visual rating, scale 0 to 100 (0 no effect, 100 complete control), 13 to 15 days, read-out: Rice plant response rating
Method in brief: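 Treated at 2-leaf (paddy) or 1–4-leaf, 2–18 cm (postemergence); greenhouse 13–15 d; visual score vs control, 0 none to 100 complete control; dash = not tested.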

Surinam grass = assay: Test B pre-/postemergence herbicide test; format: in vivo, Urochloa decumbens; conditions: Urochloa decumbens; for pest or weed control at 125 g/ha: 125 g ai/ha; for pest or weed control at 500 g/ha: 500 g ai/ha
Method in brief: as §2

lambsquarters = assay: Test B pre-/postemergence herbicide test; format: in vivo, Chenopodium album; conditions: Chenopodium album, 336 h; for pest or weed control at 125 g/ha: 125 g ai/ha; for pest or weed control at 500 g/ha: 500 g ai/ha
Method in brief: as §2

barnyardgrass [3] = assay: Test B pre-/postemergence herbicide test; format: in vivo, Echinochloa crus-galli; conditions: Echinochloa crus-galli; for pest or weed control at 125 g/ha: 125 g ai/ha; for pest or weed control at 500 g/ha: 500 g ai/ha
Method in brief: (§4)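 Test chemicals in a non-phytotoxic solvent mixture with surfactant were applied preemergence to seeded species and postemergence to plants 2-18 cm tall (1- to 4-leaf stage); rice and barnyardgrass were also tested in a flooded paddy at the 2-leaf stage. Visual rating versus controls after 13-15 days in greenhouse, scale 0 (no effect) to 100 (complete control).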

morningglory = assay: Test B pre-/postemergence herbicide test; format: in vivo, Ipomoea coccinea; conditions: Ipomoea, 336 h; for pest or weed control at 125 g/ha: 125 g ai/ha; for pest or weed control at 500 g/ha: 500 g ai/ha
Method in brief: as §4

cocklebur = assay: Test B pre-/postemergence herbicide test; format: in vivo, Xanthium strumarium; conditions: Xanthium strumarium; for pest or weed control at 125 g/ha: 125 g ai/ha; for pest or weed control at 500 g/ha: 500 g ai/ha
Method in brief: as §4

wild oat = assay: Test B postemergence herbicide test; format: in vivo, Avena fatua; conditions: Avena fatua, post-emergence, 336 h, postemergence, visual rating, scale 0 (no effect) to 100 (complete control), read-out: Oat, Wild plant response rating
Method in brief: as §3

[4] = post-emergence, postemergence, visual rating, scale 0 (no effect) to 100 (complete control), read-out: Velvetleaf plant response rating
[5] = post-emergence, postemergence, visual rating, scale 0 (no effect) to 100 (complete control), read-out: Crabgrass, Large plant response rating
[6] = post-emergence, postemergence, visual rating, scale 0 (no effect) to 100 (complete control), read-out: Pigweed plant response rating
[7] = post-emergence, postemergence, visual rating, scale 0 (no effect) to 100 (complete control), read-out: Surinam Grass plant response rating
[8] = post-emergence, postemergence, visual rating, scale 0 (no effect) to 100 (complete control), read-out: Lambsquarters plant response rating
[9] = post-emergence, postemergence, visual rating, scale 0 (no effect) to 100 (complete control), read-out: Barnyardgrass plant response rating
[10] = post-emergence, postemergence, visual rating, scale 0 (no effect) to 100 (complete control), read-out: Morningglory plant response rating
[11] = post-emergence, postemergence, visual rating, scale 0 (no effect) to 100 (complete control), read-out: Cocklebur plant response rating

SMILES: CCc1nn(C(C)(C)C)cc1C(=O)Nc1cccc(C(=O)N(CC)CC)c1 [Compound 182, N-[3-[(diethylamino)carbonyl]phenyl]-1-(1,1-dimethylethyl)-3-ethyl-1H-pyrazole-4-carboxamide]
- pest or weed control at 125 g/ha (blackgrass; 125 g ai/ha): 0%
- pest or weed control at 500 g/ha (blackgrass; 500 g ai/ha): 0%
- pest or weed control at 125 g/ha (velvetleaf; [4]): 0%
- pest or weed control at 500 g/ha (velvetleaf; [4]): 60%
- pest or weed control at 125 g/ha (velvetleaf; pre-emergence, 0 = no effect, 100 = complete control, read-out: Velvetleaf plant response rating (0 to 100 scale)): 0%
- pest or weed control at 500 g/ha (velvetleaf; pre-emergence, visual rating 0-100, 0 no effect, 100 complete control, read-out: Plant response rating, Velvetleaf): 70%
- pest or weed control at 125 g/ha (large crabgrass; [5]): 20%
- pest or weed control at 500 g/ha (large crabgrass; [5]): 30%
- pest or weed control at 125 g/ha (large crabgrass; pre-emergence, 0 = no effect, 100 = complete control, read-out: Crabgrass, Large plant response rating (0 to 100 scale)): 70%
- pest or weed control at 500 g/ha (large crabgrass; pre-emergence, visual rating 0-100, 0 no effect, 100 complete control, read-out: Plant response rating, Crabgrass, Large): 100%
- pest or weed control at 1000 g/ha (ducksalad): 60%
- pest or weed control at 1000 g/ha [1]: 80%
- pest or weed control at 1000 g/ha (barnyardgrass [2]): 40%
- pest or weed control at 125 g/ha (pigweed; [6]): 50%
- pest or weed control at 500 g/ha (pigweed; [6]): 70%
- pest or weed control at 125 g/ha (pigweed; pre-emergence, 0 = no effect, 100 = complete control, read-out: Pigweed plant response rating (0 to 100 scale)): 100%
- pest or weed control at 500 g/ha (pigweed; pre-emergence, visual rating 0-100, 0 no effect, 100 complete control, read-out: Plant response rating, Pigweed): 100%
- plant injury at 125 g/ha (wheat; 125 g ai/ha): 0%
- plant injury at 500 g/ha (wheat; 500 g ai/ha): 10%
- plant injury at 125 g/ha (corn; post-emergence, postemergence, visual rating, scale 0 (no effect) to 100 (complete control), read-out: Corn plant response rating): 30%
- plant injury at 500 g/ha (corn; post-emergence, postemergence, 500 g ai/ha, visual rating, scale 0 (no effect) to 100 (complete control), read-out: Corn plant response rating): 30%
- plant injury at 125 g/ha (corn; pre-emergence, 0 = no effect, 100 = complete control, read-out: Corn plant response rating (0 to 100 scale)): 0%
- Corn plant response rating (crop injury, 0 = no effect, 100 = complete kill) at 500 g/ha (corn; pre-emergence, 500 g ai/ha, visual rating 0-100, 0 no effect, 100 complete control): 0%
- plant injury at 1000 g/ha (rice): 0%
- pest or weed control at 125 g/ha (Surinam grass; [7]): 10%
- pest or weed control at 500 g/ha (Surinam grass; [7]): 20%
- pest or weed control at 125 g/ha (Surinam grass; pre-emergence, 0 = no effect, 100 = complete control, read-out: Surinam Grass plant response rating (0 to 100 scale)): 20%
- pest or weed control at 500 g/ha (Surinam grass; pre-emergence, visual rating 0-100, 0 no effect, 100 complete control, read-out: Plant response rating, Surinam Grass): 60%
- pest or weed control at 125 g/ha (lambsquarters; [8]): 60%
- pest or weed control at 500 g/ha (lambsquarters; [8]): 70%
- pest or weed control at 125 g/ha (lambsquarters; pre-emergence, 0 = no effect, 100 = complete control, read-out: Lambsquarters plant response rating (0 to 100 scale)): 20%
- pest or weed control at 500 g/ha (lambsquarters; pre-emergence, visual rating 0-100, 0 no effect, 100 complete control, read-out: Plant response rating, Lambsquarters): 100%
- pest or weed control at 125 g/ha (barnyardgrass [3]; [9]): 30%
- pest or weed control at 500 g/ha (barnyardgrass [3]; [9]): 50%
- pest or weed control at 125 g/ha (barnyardgrass [3]; pre-emergence, 0 = no effect, 100 = complete control, read-out: Barnyardgrass plant response rating (0 to 100 scale)): 20%
- pest or weed control at 500 g/ha (barnyardgrass [3]; pre-emergence, visual rating 0-100, 0 no effect, 100 complete control, read-out: Plant response rating, Barnyardgrass): 80%
- pest or weed control at 125 g/ha (morningglory; [10]): 50%
- pest or weed control at 500 g/ha (morningglory; [10]): 70%
- pest or weed control at 125 g/ha (morningglory; pre-emergence, 0 = no effect, 100 = complete control, read-out: Morningglory plant response rating (0 to 100 scale)): 10%
- pest or weed control at 500 g/ha (morningglory; pre-emergence, visual rating 0-100, 0 no effect, 100 complete control, read-out: Plant response rating, Morningglory): 30%
- pest or weed control at 125 g/ha (cocklebur; [11]): 50%
- pest or weed control at 500 g/ha (cocklebur; [11]): 60%
- pest or weed control at 125 g/ha (cocklebur; pre-emergence, 0 = no effect, 100 = complete control, read-out: Cocklebur plant response rating (0 to 100 scale)): 0%
- pest or weed control at 500 g/ha (cocklebur; pre-emergence, visual rating 0-100, 0 no effect, 100 complete control, read-out: Plant response rating, Cocklebur): 0%
- pest or weed control at 125 g/ha (wild oat; 125 g ai/ha): 20%
- pest or weed control at 500 g/ha (wild oat; 500 g ai/ha): 30%
